Measurements from paper PMC3351140 (MedChemComm, 2011).
Substitutions are numbered along the chain they refer to. Values joined by “and” are separate entries in the source; they are usually repeats but may differ in a detail not shown here. Equal entries are not always repeated.

Tests used:
GCase [1] = molecular target: T1, GCase (Homo sapiens, UniProt P04062); test: GCase inhibition with alternative substrates; type: biochemical
T1 sequence (P04062 40-536): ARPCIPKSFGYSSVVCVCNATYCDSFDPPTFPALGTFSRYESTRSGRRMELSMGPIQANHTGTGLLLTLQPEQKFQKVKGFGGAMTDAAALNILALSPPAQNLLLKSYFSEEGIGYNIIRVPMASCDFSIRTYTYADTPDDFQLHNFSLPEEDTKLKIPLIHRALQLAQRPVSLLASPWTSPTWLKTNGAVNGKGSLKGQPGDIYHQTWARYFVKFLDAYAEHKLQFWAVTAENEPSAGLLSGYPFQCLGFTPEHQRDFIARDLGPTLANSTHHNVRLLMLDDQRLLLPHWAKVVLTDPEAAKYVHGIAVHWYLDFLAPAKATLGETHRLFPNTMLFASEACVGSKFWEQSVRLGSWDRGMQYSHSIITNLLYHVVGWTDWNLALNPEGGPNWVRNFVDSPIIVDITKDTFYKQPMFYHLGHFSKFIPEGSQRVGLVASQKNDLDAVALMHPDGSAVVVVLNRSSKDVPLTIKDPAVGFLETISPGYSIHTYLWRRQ

[2] = system: fibroblasts from patients with genotype N370S/N370S; test: Translocation of N370S GCase to lysosomes, confocal microscopy; type: cell-based, human; conditions: 1 μM compound, five days, vs vehicle
[3] = Mouse liver microsome stability; type: in vitro ADME; conditions: 60 minutes, in the presence of NADPH
[4] = Pharmacokinetics after intraperitoneal administration to mice; type: in vivo, male C57BL/6 mice
GCase [5] = molecular target: T1, GCase; test: Isolated enzyme GCase assay; type: biochemical
GCase [6] = molecular target: T1, GCase; test: Thermofunctional stabilization of GCase; type: biochemical; conditions: enzyme incubated at 51 °C for 60 minutes
[7] = molecular target: T2, N370S glucocerebrosidase (GCase) (Homo sapiens, UniProt P04062, N409S); test: N370S spleen; type: biochemical; conditions: for IC50: N370S tissue homogenate, 4-methylumbelliferone β-D glucopyranoside substrate (blue substrate); for fold loss of activity vs 8a: compared with 8a
T2 sequence (P04062 40-536 N409S): T1 sequence (P04062 40-536) with N370S

human SST4 receptor = human SST4 receptor (Homo sapiens, UniProt P31391); test: human SST4 receptor binding affinity assay; conditions: compared with 27
human SST4 receptor, sequence (P31391 whole entry): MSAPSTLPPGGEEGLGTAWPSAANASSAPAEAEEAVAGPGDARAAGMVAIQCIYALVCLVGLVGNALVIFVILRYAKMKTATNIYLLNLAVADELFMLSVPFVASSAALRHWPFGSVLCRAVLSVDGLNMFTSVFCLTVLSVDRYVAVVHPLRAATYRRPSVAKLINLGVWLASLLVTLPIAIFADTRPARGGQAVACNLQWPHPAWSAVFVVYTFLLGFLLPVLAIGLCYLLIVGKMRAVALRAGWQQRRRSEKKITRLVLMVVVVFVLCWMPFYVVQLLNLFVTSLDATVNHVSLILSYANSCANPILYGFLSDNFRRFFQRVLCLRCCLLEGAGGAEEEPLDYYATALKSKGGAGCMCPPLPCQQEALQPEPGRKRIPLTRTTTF

Compound: S=C(NCCCc1c[nH]cn1)NCCCN(Cc1ccc(Cl)c(Cl)c1)c1ccc(Br)cn1 [8i]
- inhibition of hydrolysis of resorufin-β-glucopyranoside (red substrate) (GCase [1]): effectively inhibited
- co-localization of N370S GCase with LAMP-1 (lysosomes) [2]: Increased co-localization
- parent molecule remaining [3]: 58%
- Plasma concentration, Mean ([4]; 30 mg/kg IP, 0 hr): BQL
- Plasma concentration, individual ([4]; 30 mg/kg IP, 0 hr): BQL
- Plasma concentration, individual ([4]; 30 mg/kg IP, 0.083 hr, listed as ML156 (8i)): 1820 ng/mL and 1410 ng/mL
- Plasma concentration, individual ([4]; 30 mg/kg IP, 0.25 hr, listed as ML156 (8i)): 3010 ng/mL and 1640 ng/mL
- Plasma concentration, individual ([4]; 30 mg/kg IP, 0.5 hr, listed as ML156 (8i)): 2270 ng/mL and 3270 ng/mL
- Plasma concentration, individual ([4]; 30 mg/kg IP, 1 hr, listed as ML156 (8i)): 3770 ng/mL and 3150 ng/mL
- Plasma concentration, individual ([4]; 30 mg/kg IP, 2 hr, listed as ML156 (8i)): 3840 ng/mL
- Plasma concentration, individual ([4]; 30 mg/kg IP, 4 hr, listed as ML156 (8i)): 2030 ng/mL and 2570 ng/mL
- Plasma concentration, individual ([4]; 30 mg/kg IP, 8 hr, listed as ML156 (8i)): 1190 ng/mL and 357 ng/mL and 714 ng/mL
- Plasma concentration, individual ([4]; 30 mg/kg IP, 12 hr, listed as ML156 (8i)): 127 ng/mL and 80.7 ng/mL
- Plasma concentration, individual ([4]; 30 mg/kg IP, 24 hr, listed as ML156 (8i)): 12.6 ng/mL and 9.98 ng/mL
- brain exposure ([4]; brain, additional pharmacokinetic studies): reasonable levels of the compound also reached the brain
- inhibitory activity in isolated enzyme assays (GCase [5]): displayed inhibitory activity
- retention of GCase function after heating (GCase [6]): retain considerable function

Compound: CC(=O)NCCCNC(=S)NCCCN(Cc1ccc(Cl)cc1)c1ccc(Br)cn1 [13b]
- IC50 [7]: inactive

Compound: OC[C@H]1CNC[C@@H](O)[C@@H]1O [Isofagomine, reference compound]
- retention of GCase function after heating (GCase [6]): retain considerable function

Compound: S=C(NCCCc1cnc[nH]1)NCCCN(Cc1ccc(Cl)cc1)c1ccc(Br)cc1 [compound 24]
- co-localization of N370S GCase with LAMP-1 (lysosomes) [2]: Increased co-localization
- fold more potent than compound 27 (GCase) ([7]; compared with 27): about 10 fold
- fold less potent than 27 (SST4 binding) (human SST4 receptor): about 5 fold

Compound: CCCCNC(=S)NCCCN(Cc1ccc(Cl)c(Cl)c1)c1ccc(Br)cn1 [compound 25]
- IC50 [7]: inactive

Compound: CN(CCCN(Cc1ccc(Cl)cc1)c1ccc(Br)cn1)C(=S)NCCCc1cnc[nH]1 [compound 26]
- fold loss of activity vs 8a [7]: 2 fold

Compound: CN(CCCc1cnc[nH]1)C(=S)NCCCN(Cc1ccc(Cl)cc1)c1ccc(Br)cn1 [compound 27]
- fold loss of activity vs 8a [7]: 10 fold
